Assay results from patent publication US9809598B2 (Merck Patent GmbH, priority 2014, dated 2017).
In brackets after ≈: the same amount, converted by molar mass.

Columns and labels:
Tankyrase = conditions: as reported in the cited publication / patent application; read-out: cellular assay: EC50; cited from earlier work
[1] = Microsomal stability (intrinsic clearance), mouse liver microsomes; assay type: in vitro ADME; conditions: pH 7.4
From the text: (§1) Test Method Microsomal Stability (Intrinsic Clearance)
(§2) A microsomal stability assay is used to measure in vitro clearance (Clint). The assay involves measuring the rate of disappearance of a compound due to its intrinsic attitude to be metabolized (“intrinsic” meaning that the disappearance is not affected by other properties like permeability, binding etc. that play a role when quantifying in vivo clearance). The microsomal stability (intrinsic clearance, Clint) and thus metabolic stability is generally given as μl/min/mg protein. It can be visualized as the volume of solution that 1 mg of microsomes is able to clear of the compound in one minute.
(§3) A Tecan Genesis workstation (RSP 150/8) was used for to perform the microsomal incubations. Analysis was carried out using a Waters ACQUITY UPLC system coupled to an ABSciex API3000 mass spectrometer. Data analysis was performed using Assay Explorer (Symyx).
(§4) Chemicals • Potassium phosphate buffer: 0.05 M potassium phosphate buffer pH 7.4 containing 1 mM MgCl2 • NADPH (nicotinamide adenine dinucleotide phosphate): 22.5 mg NADPH-Na4 in 1.8 ml potassium phosphate buffer • Acetonitrile: 50 Vol % acetonitrile (1 volume acetonitrile, 1 volume water) • DMSO: 20 Vol % DMSO in water • Stock solution of 20 mg/ml human or mouse liver microsomes (protein)/ml in phosphate buffer
(§5) Stock solution of 10 mM compound in 100% DMSO

[2] = Microsomal stability (intrinsic clearance), human liver microsomes; assay type: in vitro ADME; conditions: pH 7.4
From the text: as §1, §2, §3, §4, §5

Tankyrases = conditions: read-out: EC50 [M] TNKS cellular assay; DLD1 cells, 24 hours, Axin2 increase
Solubility pH 7.4 = assay type: physicochemical; conditions: pH 7.4, aqueous buffer
TNKS1 = target: T1, TNKS1 (Homo sapiens, UniProt O95271); experiment: TNKS1 activity ELISA (autoparsylation assay); assay type: biochemical; conditions: GST-tagged Tnks-1 (1023-1327 aa)
T1 construct: GST-tagged Tnks-1 (1023-1327 aa, prepared in-house); made in house
T1 sequence (O95271 1023-1327): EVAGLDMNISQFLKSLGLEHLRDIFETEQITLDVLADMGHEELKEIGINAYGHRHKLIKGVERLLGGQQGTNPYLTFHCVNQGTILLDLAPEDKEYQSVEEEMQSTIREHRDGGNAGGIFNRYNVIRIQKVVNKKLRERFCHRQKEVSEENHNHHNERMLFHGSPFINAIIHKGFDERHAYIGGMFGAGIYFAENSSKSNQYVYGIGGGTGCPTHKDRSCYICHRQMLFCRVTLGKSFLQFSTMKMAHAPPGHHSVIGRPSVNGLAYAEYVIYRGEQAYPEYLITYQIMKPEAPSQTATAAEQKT
Summary of the method: (§6)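 GST-tagged TNKS1 or TNKS2 captured on glutathione plates and allowed to auto-PARsylate with biotinylated NAD with or without compound. Biotin-ADP-ribosylated enzyme detected by streptavidin-HRP and luminescence; IC50 relative to inhibitor-free reaction.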

TNKS2 = target: T2, TNKS2 (Homo sapiens, UniProt Q9H2K2); experiment: TNKS2 activity ELISA (autoparsylation assay); assay type: biochemical; conditions: GST-tagged Tnks-2 (873-1166 aa); read-out: IC50 [M] TNKS2 ELISA
T2 construct: GST-tagged Tnks-2 (873-1166 aa, prepared in-house); made in house
T2 sequence (Q9H2K2 873-1166): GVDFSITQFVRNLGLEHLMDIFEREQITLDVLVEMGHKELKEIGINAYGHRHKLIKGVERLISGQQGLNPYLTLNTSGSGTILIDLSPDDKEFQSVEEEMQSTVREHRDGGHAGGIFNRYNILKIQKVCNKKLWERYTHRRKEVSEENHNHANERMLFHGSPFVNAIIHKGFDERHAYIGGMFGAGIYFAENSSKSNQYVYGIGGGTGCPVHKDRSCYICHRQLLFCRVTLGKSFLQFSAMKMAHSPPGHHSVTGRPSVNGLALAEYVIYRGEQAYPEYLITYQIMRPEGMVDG
Summary of the method: as §6

PARP-1 = target: T3, PARP-1 (Homo sapiens, UniProt P09874); experiment: PARP-1 autoparsylation assay (HTRF); assay type: biochemical; conditions: His-tagged Parp-1, autoparsylation HTRF
T3 construct: purchased Enzo Life Sciences GmbH, Lörrach, Germany
T3 sequence (P09874 whole entry): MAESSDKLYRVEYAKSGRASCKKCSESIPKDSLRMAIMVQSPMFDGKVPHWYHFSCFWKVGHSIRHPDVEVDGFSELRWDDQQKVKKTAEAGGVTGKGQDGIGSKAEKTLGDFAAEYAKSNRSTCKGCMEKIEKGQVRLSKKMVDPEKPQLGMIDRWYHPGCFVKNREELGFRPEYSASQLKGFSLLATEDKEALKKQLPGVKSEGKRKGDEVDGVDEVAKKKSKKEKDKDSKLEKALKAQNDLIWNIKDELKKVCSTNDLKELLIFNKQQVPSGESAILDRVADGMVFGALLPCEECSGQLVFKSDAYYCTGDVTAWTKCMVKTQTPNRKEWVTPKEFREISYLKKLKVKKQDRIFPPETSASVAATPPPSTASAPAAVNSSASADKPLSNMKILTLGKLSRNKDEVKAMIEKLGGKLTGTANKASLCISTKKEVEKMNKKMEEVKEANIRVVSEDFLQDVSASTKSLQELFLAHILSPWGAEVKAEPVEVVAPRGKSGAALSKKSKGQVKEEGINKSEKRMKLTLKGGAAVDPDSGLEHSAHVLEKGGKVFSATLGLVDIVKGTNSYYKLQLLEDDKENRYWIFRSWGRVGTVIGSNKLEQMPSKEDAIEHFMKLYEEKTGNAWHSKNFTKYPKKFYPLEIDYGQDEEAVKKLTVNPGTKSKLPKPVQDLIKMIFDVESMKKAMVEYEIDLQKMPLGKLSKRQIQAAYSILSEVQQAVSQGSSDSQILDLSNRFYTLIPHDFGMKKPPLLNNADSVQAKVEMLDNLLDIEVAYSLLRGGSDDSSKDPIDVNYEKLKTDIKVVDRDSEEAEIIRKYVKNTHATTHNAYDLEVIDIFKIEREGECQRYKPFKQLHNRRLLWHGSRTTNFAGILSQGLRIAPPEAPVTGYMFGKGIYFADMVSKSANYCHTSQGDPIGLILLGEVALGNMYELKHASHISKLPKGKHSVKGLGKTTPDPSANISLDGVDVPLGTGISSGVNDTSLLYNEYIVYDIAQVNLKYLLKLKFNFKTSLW
Summary of the method: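 His-tagged enzyme auto-modifies itself using biotinylated NAD/NAD; product detected by TR-FRET between cryptate anti-His antibody and Xlent-streptavidin, as emission ratio.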

DLD-1-cancer cells = conditions: Huang et al., 2009; Nature; cited from earlier work

SMILES | EC50 (Tankyrase) [nM] | microsomal CLint [1] [µL/min/mg] | microsomal CLint [2] [µL/min/mg] | EC50 (Tankyrases) [M] | solubility (Solubility pH 7.4) [µg/mL] | IC50 (TNKS1) [nM] | IC50 (TNKS2) [M] | IC50 (PARP-1) [nM] | growth of DLD-1-cancer cells (DLD-1-cancer cells)
COc1ccc(C(=O)C2CCN(CC(=O)N(Cc3nc4c(c(=O)[nH]3)COCC4)CC3CC3)CC2)cc1 | 35 |  |  |  |  |  |  |  | 
COc1ccccc1NC(=O)c1ccc(NC(=O)CCc2nc3ccccc3c(=O)[nH]2)cc1 | 320 |  |  |  |  |  |  |  | 
COc1ccc(C(=O)C2CCN(C(=O)CCCc3nc4ccccc4c(=O)[nH]3)CC2)cc1 [Compound A1, 2-{4-[4-(4-methoxy-benzoyl)-piperidin-1-yl]-4-oxo-butyl}-3H-quinazolin-4-one, reference compound] |  | 120 | 104 | 2e-09 | 18 (≈ 41.5 µM) |  |  |  | 
COc1ccc(C(=O)C2CCN(C(=O)CCCc3nc4c(F)cc(F)cc4c(=O)[nH]3)CC2)cc1 [Compound A5, 6,8-difluoro-2-{4-[4-(4-methoxy-benzoyl)-piperidin-1-yl]-4-oxo-butyl}-3H-quinazolin-4-one, reference compound] |  | 86 | 58 | 2.6e-09 | 5 (≈ 10.6 µM) |  |  |  | 
COc1ccc(C(=O)C2CCN(C(=O)CCCc3nc4c(cnn4C)c(=O)[nH]3)CC2)cc1 [Compound C41, 6-{4-[4-(4-Methoxy-benzoyl)-piperidin-1-yl]-4-oxo-butyl}-1-methyl-1,5-dihydro-pyrazolo[3,4-d]pyrimidin-4-one] |  | 36 | 25 | 1.8e-09 | 55 (≈ 126 µM) | 0.18 | 1.3e-10 | 6300 | 
COc1ccc(C(=O)C2CCN(C(=O)CCCc3nc4c(cnn4C)c(=O)[nH]3)CC2)cc1F [Compound C42, 6-{4-[4-(3-Fluoro-4-methoxy-benzoyl)-piperidin-1-yl]-4-oxo-butyl}-1-methyl-1,5-dihydro-pyrazolo[3,4-d]pyrimidin-4-one] |  | 51 | 16 | 4.8e-09 | 158 (≈ 347 µM) | 0.12 | < 1e-10 | 12000 | 
COc1ccc(C(=O)C2CCN(C(=O)CCCc3nc4c(cnn4C)c(=O)[nH]3)CC2)cn1 [Compound C43, 6-{4-[4-(6-Methoxy-pyridine-3-carbonyl)-piperidin-1-yl]-4-oxo-butyl}-1-methyl-1,5-dihydro-pyrazolo[3,4-d]pyrimidin-4-one] |  | 36 | 15 | 4.3e-09 | 207 (≈ 472 µM) | 0.52 | 3.5e-10 | 18000 | 
Cn1ncc2c(=O)[nH]c(CCCC(=O)N3CCC(c4cnc(N)c(-c5ncccn5)c4)CC3)nc21 [Compound C45, 6-[4-(6-Amino-5-pyrimidin-2-yl-3′,4′,5′,6′-tetrahydro-2′H-[3,4′]bipyridinyl-1′-yl)-4-oxo-butyl]-1-methyl-1,5-dihydro-pyrazolo[3,4-d]pyrimidin-4-one] |  | 62 | 25 | 4.9e-10 | 42 (≈ 88.7 µM) | 0.26 | 1.9e-10 | 3800 | 
Cn1ncc2c(=O)[nH]c(CCCC(=O)N3CCC(C(=O)c4ccc(F)cc4)CC3)nc21 [Compound C48, 6-{4-[4-(4-Fluoro-benzoyl)-piperidin-1-yl]-4-oxo-butyl}-1-methyl-1,5-dihydro-pyrazolo[3,4-d]pyrimidin-4-one] |  | 59 | 20 | 4.4e-09 | 206 (≈ 484 µM) | 0.45 | 3.1e-10 | 7300 | 
COc1ccc(C(=O)C2CCN(C(=O)CCCc3nc4c(c(=O)[nH]3)COCC4)CC2)cc1 [Compound C52, 2-{4-[4-(4-Methoxy-benzoyl)-piperidin-1-yl]-4-oxo-butyl}-3,5,7,8-tetrahydro-pyrano[4,3-d]pyrimidin-4-one] |  | < 10 | < 10 | 4.6e-09 | 868 (≈ 1970 µM) | 1.4 | 4.8e-10 | 1900 | 
COc1ccc(C(=O)C2CCN(C(=O)CCCc3nn4cccc4c(=O)[nH]3)CC2)cn1 [Compound C137, 2-{4-[4-(6-Methoxy-pyridine-3-carbonyl)-piperidin-1-yl]-4-oxo-butyl}-3H-pyrrolo[2,1-f][1,2,4]triazin-4-one] |  | 78 | 10 | 1.9e-08 | 70 (≈ 165 µM) | 1.5 | 1e-09 | 21000 | 
Cc1ccc2c(=O)[nH]c(CCCC(=O)N3CCC(C(=O)c4cnn(C)c4)CC3)nn12 [Compound C157, 7-Methyl-2-{4-[4-(1-methyl-1H-pyrazole-4-carbonyl)-piperidin-1-yl]-4-oxo-butyl}-3H-pyrrolo[2,1-f][1,2,4]triazin-4-one] |  | 46 | 22 | 2.7e-09 | 272 (≈ 663 µM) | 0.31 | 2.6e-10 | 860 | 
Cn1cc(C(=O)C2CCN(C(=O)CCCc3nn4cc(F)cc4c(=O)[nH]3)CC2)cn1 [Compound C179, 6-Fluoro-2-{4-[4-(1-methyl-1H-pyrazole-4-carbonyl)-piperidin-1-yl]-4-oxo-butyl}-3H-pyrrolo[2,1-f][1,2,4]triazin-4-one] |  | 29 | 11 | 1.7e-08 | 58 (≈ 140 µM) | 0.52 | 1.1e-09 | 11000 | 
COc1ccc(C(=O)C2CCN(C(=O)CCCc3nc4c(c(=O)[nH]3)COCC4)CC2)cc1C [Compound C199, 2-{4-[4-(4-Methoxy-3-methyl-benzoyl)-piperidin-1-yl]-4-oxo-butyl}-3,5,7,8-tetrahydro-pyrano[4,3-d]pyrimidin-4-one] |  | 44 | 12 | 3.3e-09 | 585 (≈ 1290 µM) | 0.27 | 2.2e-10 | 2200 | 
Cn1cc(C(=O)C2CCN(C(=O)CCCc3cn4c(F)ccc4c(=O)[nH]3)CC2)cn1 [Compound C208, 6-Fluoro-3-{4-[4-(1-methyl-1H-pyrazole-4-carbonyl)-piperidin-1-yl]-4-oxo-butyl}-2H-pyrrolo[1,2-a]pyrazin-1-one] |  | 26 | < 10 | 5.2e-09 | 101 (≈ 244 µM) | 0.25 | 2.3e-10 | 6000 | 
CCn1cc(C(=O)C2CCN(C(=O)CCCc3nn4cccc4c(=O)[nH]3)CC2)cn1 [Compound C214, 2-{4-[4-(1-Ethyl-1H-pyrazole-4-carbonyl)-piperidin-1-yl]-4-oxo-butyl}-3H-pyrrolo[2,1-f][1,2,4]triazin-4-one] |  | 41 | 21 | 1.5e-08 | 394 (≈ 960 µM) | 2.2 | 1.3e-09 | 8500 | 
Oc1nc(-c2ccc(C(F)(F)F)cc2)nc2c1CSCC2 [XAV939] |  |  |  |  |  |  |  |  | inhibits growth
